According to patent publication US20040223963A1, “Method for treating ischemic stroke with melatonin” (priority 2003, published 2004):
“Also recorded” adds a separate entry of the source. Read-outs that look alike come from different tables or passages of the source.

Key:
ischemic stroke = settings: cited from earlier work
[1] = test system: adult Sprague-Dawley rats; assay: endovascular middle cerebral artery occlusion (MCAO) stroke models, permanent and 3-hour; type: in vivo, rat
Excerpt: The laboratory observations in support of the disclosed invention include experiments with rats. In experimental studies, the control groups of animal received identical handling plus an intraperitoneal injection of the vehicle alone (i.e. without melatonin).

women = settings: oral, about 300 mg daily for about 4 months; cited from earlier work
[2] = clinical trials on neuroprotection against ischemic stroke
[3] = second and third doses added at 24 and 48 hours of ischemia

In the case of `O=C(/C=C/c1c(C(=O)O)[nH]c2cc(Cl)cc(Cl)c12)Nc1ccccc1` [GV150526], the “Results (efficacy)” value (ischemic stroke; [2]) is given as “No efficacy”.

In the case of `CN1CC[C@@]23CCCC[C@@H]2[C@@H]1Cc1ccc(O)cc13` [Dextrorfan], the “Results (adverse effects)” value (ischemic stroke; [2]) is given as “Trial stopped, adverse effects”.

In the case of `NS(=O)(=O)c1cccc2c1c([N+](=O)[O-])cc1nc(O)c(O)nc12` [NBQX], the “Results (adverse effects)” value (ischemic stroke; in vivo) is listed as “Trial stopped, adverse effects”.

For `COc1ccc2[nH]cc(CCNC(C)=O)c2c1` [melatonin], the “efficacy at high dose” value ([1]; 50 mg/kg) was “effective”, the harmful effects ([1]; doses up to about 50 mg/kg) was “can be administered safely; also recorded: no evidence of producing any harmful effects” and the “reduction of infarct volume” value ([1]; pre-treatment, single i.p. injection, about 5 to about 15 mg/kg, at about 72 hours, permanent and 3-hour MCAO) was “about 40%”. For the same molecule, the “effect on systemic hemodynamic parameters and regional cerebral blood flow” value ([1]; pre-treatment, single i.p. injection, about 5 to about 15 mg/kg, permanent and 3-hour MCAO) was “without affecting”, the “infarct volume with additional doses” value [1, 3] was “tended to achieve increased reduction in infarct volume” and the treatment time window [1, 3] was “failed to extend the treatment time window beyond about 3 hours”. The “efficacy of treatment after onset of ischemia” value ([1]; single injection about 5 mg/kg commenced at 1 hour or less after onset of ischemia, 3-hour MCAO) was “effective”, the effect on ovulation (women) was “inhibit ovulation” and the side effects (women) was “without significant side effects”.

In the case of `COC(=O)C1=C(C)NC(C)=C(C(=O)OC(C)C)C1c1cccc2nonc12` (centres unmarked) [Isradipine], the “Results (efficacy)” value (ischemic stroke; [2]) is listed as “No efficacy”.

For `Fc1ccc(C(c2ccc(F)cc2)N2CCN(C/C=C/c3ccccc3)CC2)cc1` [Flunarizine], the “Results (efficacy)” value (ischemic stroke; [2]) is given as “No efficacy”.

For `O=C(O)[C@@H]1C[C@H](CP(=O)(O)O)CCN1` (racemic) [Selfotel], the “Results (adverse effects)” value (ischemic stroke; [2]) is listed as “Trial stopped, adverse effects”.

In the case of `COc1ccc(Cl)cc1[C@]1(F)C(=O)Nc2cc(C(F)(F)F)ccc21` [BMS-204352], the “Results (efficacy)” value (ischemic stroke; [2]) is listed as “No efficacy”.

In the case of `NC(=O)CN1CCCC1=O` [Piracetam], the “Results (efficacy)” value (ischemic stroke; [2]) is listed as “No overall efficacy,”.

For `CCCn1cnc2c1c(=O)n(CCCCC(C)=O)c(=O)n2C` [Propentophylline], the “Results (adverse effects)” value (ischemic stroke; [2]) is listed as “Trial stopped, adverse effects”.

In the case of `C=C1CC[C@@]2(O)[C@H]3Cc4ccc(O)c5c4[C@@]2(CCN3CC2CC2)[C@H]1O5` [Nalmefene], the “Results (efficacy)” value (ischemic stroke; [2]) is given as “No efficacy”.

For `OC(CN1CCC(Cc2ccc(F)cc2)CC1)c1ccc(Cl)cc1` (centres unmarked) [Eliprodil], the “Results (efficacy)” value (ischemic stroke; [2]) is given as “No efficacy”.

In the case of `O=C1NC(c2ccccc2)(c2ccccc2)C(=O)N1COP(=O)(O)O` [Fosphenytoin], the “Results (efficacy)” value (ischemic stroke; [2]) is given as “No efficacy”.

For `C[C@]12N[C@H](Cc3ccccc31)c1ccccc12` [Dizolcipine], the “Results (adverse effects)” value (ischemic stroke; [2]) is listed as “Trial stopped, adverse effects”.

In the case of `CN(c1nc2ccccc2s1)C1CCN(C[C@H](O)COc2ccc(F)c(F)c2)CC1` [Lubeluzole], the “Results (efficacy)” value (ischemic stroke; [2]) is given as “No efficacy”.

For bFGF: Neurotrophic factor, the “Results (adverse effects)” value (ischemic stroke; in vivo) is listed as “Trial stopped, adverse effects”.

For `CCc1cccc(N(C)C(N)=Nc2cccc3ccccc23)c1` [Aptiganel], the “Results (adverse effects)” value (ischemic stroke; [2]) is listed as “Trial stopped, adverse effects”.

For `C[C@@H]1C[C@H]2[C@@H]3CCC4=CC(=O)C=C[C@]4(C)C3=CC[C@]2(C)[C@H]1C(=O)CN1CCN(c2cc(N3CCCC3)nc(N3CCCC3)n2)CC1` [Tirilazad], the “Results (efficacy)” value (ischemic stroke; [2]) is given as “No efficacy”.
